Source: article PMC4685510, “A Cell Biologist’s Field Guide to Aurora Kinase Inhibitors” (Frontiers in Oncology, 2015)

Assays:
Assay in all cases: biochemical
Type in all cases: biochemical
[1] = target: 363 human kinases (including Aurora A/B/C) (Homo sapiens, UniProt O43353); conditions: RIPK2; for remaining activity at 0.1 µM: 100 nM; for remaining activity at 0.1 µM / remaining activity at 0.5 µM: read-out: % Enzyme Activity (relative to DMSO controls)
From the text: (§1) However, the Aurora A/B selectivity ratios derived from our in vitro and in vivo data can be compared to prioritize inhibitors.

[2] = target: T1, 363 human kinases (including Aurora A/B/C) (Homo sapiens, UniProt Q06418); conditions: TYRO3/SKY; for remaining activity at 0.1 µM: 100 nM; for remaining activity at 0.1 µM / remaining activity at 0.5 µM: read-out: % Enzyme Activity (relative to DMSO controls)
T1 sequence (Q06418 41-890): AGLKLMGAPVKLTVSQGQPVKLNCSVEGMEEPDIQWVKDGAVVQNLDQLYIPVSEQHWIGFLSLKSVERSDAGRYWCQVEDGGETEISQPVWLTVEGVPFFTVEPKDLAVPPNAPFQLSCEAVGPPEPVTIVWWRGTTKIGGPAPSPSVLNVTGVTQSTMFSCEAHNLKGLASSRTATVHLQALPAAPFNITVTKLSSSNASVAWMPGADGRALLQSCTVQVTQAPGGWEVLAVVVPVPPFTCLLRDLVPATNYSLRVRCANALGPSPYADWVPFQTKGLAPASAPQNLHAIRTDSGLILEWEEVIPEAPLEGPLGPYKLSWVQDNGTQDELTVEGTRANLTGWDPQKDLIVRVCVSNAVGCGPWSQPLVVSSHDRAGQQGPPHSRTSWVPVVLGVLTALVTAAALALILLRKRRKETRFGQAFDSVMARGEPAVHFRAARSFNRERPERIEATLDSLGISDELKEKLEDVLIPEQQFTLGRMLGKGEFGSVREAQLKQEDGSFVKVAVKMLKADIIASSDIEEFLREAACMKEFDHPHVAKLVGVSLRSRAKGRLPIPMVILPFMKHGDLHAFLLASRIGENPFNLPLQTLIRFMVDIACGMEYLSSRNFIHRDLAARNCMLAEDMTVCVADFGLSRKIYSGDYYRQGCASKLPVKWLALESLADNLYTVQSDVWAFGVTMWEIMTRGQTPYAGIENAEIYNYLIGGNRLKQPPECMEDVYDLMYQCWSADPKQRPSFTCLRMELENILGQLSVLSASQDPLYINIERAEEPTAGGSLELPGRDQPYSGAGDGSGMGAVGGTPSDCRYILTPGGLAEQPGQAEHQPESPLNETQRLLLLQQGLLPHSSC
From the text: as §1

[3] = target: T2, 363 human kinases (including Aurora A/B/C) (Homo sapiens, UniProt Q12852); conditions: DLK/MAP3K12, [ATP] 30 µM; for remaining activity at 0.1 µM: 100 nM; for remaining activity at 0.1 µM / remaining activity at 0.5 µM: read-out: % Enzyme Activity (relative to DMSO controls)
T2 sequence (Q12852 1-859): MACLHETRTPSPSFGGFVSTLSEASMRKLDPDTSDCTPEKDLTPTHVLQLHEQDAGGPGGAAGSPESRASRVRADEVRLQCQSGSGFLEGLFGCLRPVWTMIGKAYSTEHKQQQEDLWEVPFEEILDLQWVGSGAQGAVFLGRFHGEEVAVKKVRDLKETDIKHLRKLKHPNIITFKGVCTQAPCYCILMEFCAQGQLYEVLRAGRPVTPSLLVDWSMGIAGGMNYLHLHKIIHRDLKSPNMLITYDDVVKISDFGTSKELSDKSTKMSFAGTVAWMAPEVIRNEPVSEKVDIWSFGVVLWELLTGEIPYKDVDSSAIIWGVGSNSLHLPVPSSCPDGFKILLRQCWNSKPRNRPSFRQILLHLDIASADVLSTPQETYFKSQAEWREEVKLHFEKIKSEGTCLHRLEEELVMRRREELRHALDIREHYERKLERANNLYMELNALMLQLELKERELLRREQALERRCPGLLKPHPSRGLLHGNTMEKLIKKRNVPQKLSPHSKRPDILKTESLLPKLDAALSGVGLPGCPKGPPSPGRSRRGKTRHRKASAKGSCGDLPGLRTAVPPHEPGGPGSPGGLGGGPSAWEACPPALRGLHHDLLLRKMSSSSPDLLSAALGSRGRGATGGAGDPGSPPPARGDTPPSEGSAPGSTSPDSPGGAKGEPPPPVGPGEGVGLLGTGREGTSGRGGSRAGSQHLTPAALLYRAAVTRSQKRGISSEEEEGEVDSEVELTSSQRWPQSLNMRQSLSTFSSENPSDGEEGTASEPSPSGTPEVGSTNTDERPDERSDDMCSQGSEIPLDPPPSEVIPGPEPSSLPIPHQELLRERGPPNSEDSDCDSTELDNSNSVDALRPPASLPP
From the text: as §1

[4] = target: 363 human kinases (including Aurora A/B/C) (Homo sapiens, UniProt Q8IY84); conditions: NIM1; for remaining activity at 0.1 µM: 100 nM; for remaining activity at 0.1 µM / remaining activity at 0.5 µM: read-out: % Enzyme Activity (relative to DMSO controls)
From the text: as §1

[5] = target: 363 human kinases (including Aurora A/B/C) (Homo sapiens, UniProt Q8TDX7); conditions: NEK7; for remaining activity at 0.1 µM: 100 nM; for remaining activity at 0.1 µM / remaining activity at 0.5 µM: read-out: % Enzyme Activity (relative to DMSO controls)
From the text: as §1

[6] = target: 363 human kinases (including Aurora A/B/C) (Homo sapiens, UniProt Q9P289); conditions: MST4; for remaining activity at 0.1 µM: 100 nM; for remaining activity at 0.1 µM / remaining activity at 0.5 µM: read-out: % Enzyme Activity (relative to DMSO controls)
From the text: as §1

[7] = target: 363 human kinases (including Aurora A/B/C) (Homo sapiens, UniProt Q9UK32); conditions: RSK4; for remaining activity at 0.1 µM: 100 nM; for remaining activity at 0.1 µM / remaining activity at 0.5 µM: read-out: % Enzyme Activity (relative to DMSO controls)
Chain of 363 human kinases (including Aurora A/B/C) (Homo sapiens, UniProt Q9UK32) (Q9UK32 whole entry): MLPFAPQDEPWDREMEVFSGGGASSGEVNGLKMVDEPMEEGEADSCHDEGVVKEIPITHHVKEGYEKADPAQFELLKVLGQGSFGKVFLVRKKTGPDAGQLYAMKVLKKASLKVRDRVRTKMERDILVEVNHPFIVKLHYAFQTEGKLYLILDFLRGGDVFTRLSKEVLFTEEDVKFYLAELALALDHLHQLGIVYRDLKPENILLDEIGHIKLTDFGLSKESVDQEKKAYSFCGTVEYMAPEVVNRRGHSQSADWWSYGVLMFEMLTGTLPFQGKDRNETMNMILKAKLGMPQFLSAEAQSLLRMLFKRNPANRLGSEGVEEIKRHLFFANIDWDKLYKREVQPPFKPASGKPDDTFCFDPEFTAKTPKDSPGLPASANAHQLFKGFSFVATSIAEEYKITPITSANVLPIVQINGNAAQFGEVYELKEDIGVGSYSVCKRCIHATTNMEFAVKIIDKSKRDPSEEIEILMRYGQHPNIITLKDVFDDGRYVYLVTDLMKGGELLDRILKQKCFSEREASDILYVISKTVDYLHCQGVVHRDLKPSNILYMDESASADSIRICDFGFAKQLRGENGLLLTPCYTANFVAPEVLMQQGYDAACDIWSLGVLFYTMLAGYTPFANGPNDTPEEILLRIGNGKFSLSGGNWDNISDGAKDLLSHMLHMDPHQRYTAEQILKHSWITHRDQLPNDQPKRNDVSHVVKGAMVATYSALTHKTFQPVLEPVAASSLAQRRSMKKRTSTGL
From the text: as §1

Chain of 363 human kinases (including Aurora A/B/C) (Homo sapiens, UniProt Q8IY84) (Q8IY84 whole entry): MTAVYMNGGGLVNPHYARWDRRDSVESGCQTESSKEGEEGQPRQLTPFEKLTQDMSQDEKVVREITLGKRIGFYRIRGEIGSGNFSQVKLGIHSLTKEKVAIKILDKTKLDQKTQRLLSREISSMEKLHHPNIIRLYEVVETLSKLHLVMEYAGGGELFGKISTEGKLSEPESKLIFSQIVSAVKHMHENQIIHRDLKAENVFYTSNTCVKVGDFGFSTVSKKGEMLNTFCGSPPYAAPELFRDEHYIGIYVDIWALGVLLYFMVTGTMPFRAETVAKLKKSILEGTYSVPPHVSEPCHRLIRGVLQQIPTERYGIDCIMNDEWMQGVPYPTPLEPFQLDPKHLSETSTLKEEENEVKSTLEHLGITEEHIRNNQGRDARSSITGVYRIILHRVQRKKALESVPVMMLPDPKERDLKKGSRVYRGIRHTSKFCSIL
Chain of 363 human kinases (including Aurora A/B/C) (Homo sapiens, UniProt O43353) (O43353 whole entry): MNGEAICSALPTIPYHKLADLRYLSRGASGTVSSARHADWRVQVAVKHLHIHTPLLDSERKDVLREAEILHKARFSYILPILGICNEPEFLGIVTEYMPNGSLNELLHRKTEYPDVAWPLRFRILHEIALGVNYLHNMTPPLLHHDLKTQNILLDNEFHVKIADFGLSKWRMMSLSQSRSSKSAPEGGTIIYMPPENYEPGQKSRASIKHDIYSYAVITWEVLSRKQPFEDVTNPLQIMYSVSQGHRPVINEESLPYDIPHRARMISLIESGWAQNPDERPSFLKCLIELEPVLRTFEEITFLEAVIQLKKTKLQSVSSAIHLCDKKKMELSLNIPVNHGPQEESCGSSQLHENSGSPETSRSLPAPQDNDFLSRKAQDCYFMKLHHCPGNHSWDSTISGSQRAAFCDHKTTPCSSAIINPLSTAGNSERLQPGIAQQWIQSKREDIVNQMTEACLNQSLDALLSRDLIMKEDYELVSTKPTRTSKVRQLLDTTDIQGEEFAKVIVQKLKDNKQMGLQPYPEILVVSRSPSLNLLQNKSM
Chain of 363 human kinases (including Aurora A/B/C) (Homo sapiens, UniProt Q8TDX7) (Q8TDX7 whole entry): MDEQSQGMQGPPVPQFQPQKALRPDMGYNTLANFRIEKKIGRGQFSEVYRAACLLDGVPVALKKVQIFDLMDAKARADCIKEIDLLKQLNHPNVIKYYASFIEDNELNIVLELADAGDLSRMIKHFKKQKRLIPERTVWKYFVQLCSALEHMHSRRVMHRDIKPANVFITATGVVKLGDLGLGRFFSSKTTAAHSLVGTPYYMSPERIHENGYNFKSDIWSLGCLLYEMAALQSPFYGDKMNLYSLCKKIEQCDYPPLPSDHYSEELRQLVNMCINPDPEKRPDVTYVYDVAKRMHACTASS
Chain of 363 human kinases (including Aurora A/B/C) (Homo sapiens, UniProt Q9P289) (Q9P289 whole entry): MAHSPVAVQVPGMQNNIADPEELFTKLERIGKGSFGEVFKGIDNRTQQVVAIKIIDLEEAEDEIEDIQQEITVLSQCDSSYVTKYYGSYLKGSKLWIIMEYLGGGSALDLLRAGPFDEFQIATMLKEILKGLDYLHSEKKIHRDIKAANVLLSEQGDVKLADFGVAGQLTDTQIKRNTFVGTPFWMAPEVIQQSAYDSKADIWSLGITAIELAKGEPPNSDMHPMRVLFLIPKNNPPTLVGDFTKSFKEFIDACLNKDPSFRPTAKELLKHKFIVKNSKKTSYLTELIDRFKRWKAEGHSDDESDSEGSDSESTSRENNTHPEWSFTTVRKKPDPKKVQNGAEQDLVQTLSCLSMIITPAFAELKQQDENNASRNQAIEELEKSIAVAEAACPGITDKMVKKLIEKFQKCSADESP

SMILES	remaining activity at 0.1 µM [1]	remaining activity at 0.5 µM ([1]; 500 nM)	remaining activity at 0.1 µM [2]	remaining activity at 0.5 µM ([2]; 500 nM)	remaining activity at 0.1 µM [3]	remaining activity at 0.5 µM ([3]; 500 nM)	remaining activity at 0.1 µM [4]	remaining activity at 0.5 µM ([4]; 500 nM)	remaining activity at 0.1 µM [5]	remaining activity at 0.5 µM ([5]; 500 nM)	remaining activity at 0.1 µM [6]	remaining activity at 0.5 µM ([6]; 500 nM)	remaining activity at 0.1 µM [7]	remaining activity at 0.5 µM ([7]; 500 nM)	also measured
O=C(O)[C@]1(Cc2cccc(Nc3nccs3)n2)CC[C@@H](Oc2cccc(Cl)c2F)CC1 [MK-5108]	89.1%	60%	75.9%	40.6%	72.1%	23.1%	96.8%	96.4%	98.5%	109%	84%	81.5%	94.2%	90.1%	–
O=C(c1cccc(Cl)c1F)N1CCN(Cc2cccc(Nc3nccs3)n2)CC1 [MK-8745]	–	89.3%	–	29.3%	–	59.2%	–	97.2%	–	109%	–	87.2%	–	97.1%	% Enzyme Activity (relative to DMSO controls) ([1]; 500 nM): 82.53%; % Enzyme Activity (relative to DMSO controls) ([2]; 500 nM): 27.58%; % Enzyme Activity (relative to DMSO controls) ([3]; 500 nM): 53.85%; % Enzyme Activity (relative to DMSO controls) ([4]; 500 nM): 97.14%; % Enzyme Activity (relative to DMSO controls) ([5]; 500 nM): 107.51%; % Enzyme Activity (relative to DMSO controls) ([6]; 500 nM): 78.55%; % Enzyme Activity (relative to DMSO controls) ([7]; 500 nM): 94.73%
CCn1cc(-c2ccnc3[nH]c(-c4cccc(CN(C)C)c4)cc23)c(-c2ccc(NC(=O)N(C)C)cc2)n1 [GSK1070916]	116%	–	83.8%	–	80.4%	–	94.8%	–	102%	–	76.4%	–	93.6%	–	–
